Measurements as given in patent US6395741B1, “Agent for prophylaxis or treatment of dysuria” (Tanabe Seiyaku Co., Ltd., priority 1998, dated 2002).
Square brackets hold non-standard residues; d marks the D form. Ends that are not written are not given here. Peptide text beside a SMILES is read from it. Nva = CCC[C@H](N)C(=O)O

Columns and labels:
[1] = test system: anesthetized dogs; assay: Urethral resistance increasing activity in the anesthetized dogs; format: in vivo, dog
Procedure: (§1) Polyethylene tubes were inserted to male adult mongrel dogs which had been fasted overnight (four dogs, weights: 10 to 14 kg), under pentobarbital anesthesia (30 mg/kg, i.v.), at the femoral veins on both sides. The anesthesia was maintained by continuous transfusion of pentobarbital (4.5 mg/kg) from said polyethylene tubes, and the dogs were ventilated by a respirator for animal (20 strokes per minute, 15 ml/kg/ventilation). Then, a polyethylene tube was inserted for administration of a test compound into the duodenum, and the urinary bladder and the proximal urethra were exposed. In order to avoid the urinary backup within the urinary bladder, a polyethylene tube having a silicon tube was inserted at the ureters on both sides, by which a way for excreting the urine from the body was reserved. Moreover, in order to determine the ventral and dorsal prostatic urethral resistances, the apex of the urinary bladder was incised, and a 2-hole open-tip catheter (12Fr, manufactured by CLINY) was inserted into the prostatic urethra through the bladder body. Said catheter was ligated at the proximal urethra and the bladder body, and one of the ends thereof was connected with a pressure-transducer and a syringe pump (SP-25, manufactured by Terumo Corporation) via a three-way turncock. Then, the change in the perfusion pressure (i.e., the change in the urethral resistance, mmHg) caused by the continuous infusion of physiological saline (37° C., 3 ml/hr) through this catheter was recorded on a linearcorder (WR-3701, manufactured by Graphtec Corporation) via a carrier amplifier (AP-621G, manufactured by Nihon Kohden Corporation).
In order to increase the urethral resistance, a solution of phenylephrine (α1 agonist) or endothelin-1 in physiological saline was intravenously administered at a prescribed dose (volume: 0.1 ml/kg) to the dogs when 60 minutes or more elapsed after the above operation.

[2] = test system: increase in urethral resistance induced by endothelin-1; assay: Inhibitory activity against the increase in urethral resistance induced by endothelin-1; format: in vivo, dog; conditions: intraduodenal administration 1 mg/kg; endothelin-1 0.4 nmol/kg i.v.; dogs
Procedure: as §1, with “Moreover, in order to determine the ventral and dorsal prostatic urethral resistances, the apex of the urinary bladder was incised, and a 2-hole open-tip catheter (12Fr, manufactured by CLINY) was inserted into the prostatic urethra through the bladder body. Said catheter was ligated at the proximal urethra and the bladder body, and one of the ends thereof was connected with a pressure-transducer and a syringe pump (SP-25, manufactured by Terumo Corporation) via a three-way turncock.” left out, “Corporation). […]” for “Corporation).”

[3] = test system: smooth muscle of hypertrophied prostatic adenoma; conditions: Journal of Japanese Urology Society, vol. 84, No. 9, 1993; cited from earlier work
[4] = test system: prostatic contractions induced by endothelin-1; conditions: JP-A-8-508034; cited from earlier work

endothelin-1 (CSCSSLMDKECVYFCHLDIIW; ends and bridges not checked; cysteine pairing not given here; UniProt P05305 53-73, looked up)
Average increase of the urethral resistance relative to phenylephrine at 30 μg/kg ([1]; endothelin-1 0.4 nmol/kg vs phenylephrine 30 μg/kg, i.v., dogs): about 4 times
Urethral pressure (increase of the prostatic urethral resistance) ([1]; endothelin-1 i.v. 0.05 nmol/kg, anesthetized dogs): 2.2 mmHg
Urethral pressure (increase of the prostatic urethral resistance) ([1]; endothelin-1 i.v. 0.1 nmol/kg, anesthetized dogs): 4.5 mmHg
Urethral pressure (increase of the prostatic urethral resistance) ([1]; endothelin-1 i.v. 0.2 nmol/kg, anesthetized dogs): 14.3 mmHg
Urethral pressure (increase of the prostatic urethral resistance) ([1]; endothelin-1 i.v. 0.4 nmol/kg, anesthetized dogs): 18.9 mmHg
Urethral pressure (increase of the prostatic urethral resistance) ([1]; endothelin-1 i.v. 0.8 nmol/kg, anesthetized dogs): 15.4 mmHg
Duration of the urethral resistance increasing activity ([1]; i.v., anesthetized dogs, compared with phenylephrine): more long-acting than that of phenylephrine

Cc1ccc(-c2c(NS(=O)(=O)c3ccc(C(C)(C)CO)cc3)ncnc2OCCOc2ncc(Br)cn2)cc1.[Na] [test compound, 4-(2-hydroxy-1,1-dimethylethyl)-N-[6-{2-(5-bromopyrimidin-2-yloxy)ethoxy}-5-(4-methylphenyl)pyrimidin-4-yl]benzenesulfonamide sodium salt 1.5 hydrate]
Inhibition of the increase in urethral resistance induced by endothelin-1 [2]: completely inhibited

CNC[C@H](O)c1cccc(O)c1 [phenylephrine]
Urethral pressure (increase of the prostatic urethral resistance) ([1]; phenylephrine i.v. 0.3 μg/kg, anesthetized dogs): 0.8 mmHg
Urethral pressure (increase of the prostatic urethral resistance) ([1]; phenylephrine i.v. 1 μg/kg, anesthetized dogs): 2.1 mmHg
Urethral pressure (increase of the prostatic urethral resistance) ([1]; phenylephrine i.v. 3 μg/kg, anesthetized dogs): 3.3 mmHg
Urethral pressure (increase of the prostatic urethral resistance) ([1]; phenylephrine i.v. 10 μg/kg, anesthetized dogs): 4.6 mmHg
Urethral pressure (increase of the prostatic urethral resistance) ([1]; phenylephrine i.v. 30 μg/kg, anesthetized dogs): 4.9 mmHg

CCC[C@@H]1NC(=O)[C@@H](C(C)C)NC(=O)[C@@H]2CCCN2C(=O)[C@@H](CC(=O)O)NC(=O)[C@@H](Cc2c[nH]c3ccccc23)NC1=O (cyclo([Nva][dW][dD]P[dV]))
Inhibition of contractions of the smooth muscle of hypertrophied prostatic adenoma induced by endothelin-1 [3]: inhibited

N-(4-isopropylbenzenesulfonyl)-α-(4-carboxy-2-n-propylphenoxy)-3,4-methylenedioxyphenylacetamide dipotassium salt
Activity of inhibiting the prostatic contractions induced by endothelin-1 [4]: shows an activity of inhibiting
